Entries after “also recorded” stand apart in the source; their conditions may differ.
Tests used:
[1] = test system: choline acetyl transferase (ChAT) immunoreactive cells; assay: Anti-ChAT immunofluorescence, cholinergic neuron counts; assay type: in vivo, mouse; conditions: for Fewer cholinergic neurons than control: SG-fed; for Cholinergic neurons, change: ventral horn lumbar spinal cord, SG-fed vs control
Experimental: Tissue-mounted slides were processed for fluorescence microscopy as follows: Sections were rinsed in coplin jars for 45 minutes at room temperature (RT) in three changes of PBS. Sections were then incubated at RT for 30 minutes in a blocking permeabilization solution made of 5% normal goat serum (NGS), 5% normal rabbit serum (NRS) or 5% BlokHen II (Ayes Labs, Inc., Tigard, Oreg.), 0.05% Triton X-100 and PBS. Subsequently, the blocking solution was tipped off and the slides were rinsed in PBS for 2 minutes. Sections were then incubated overnight in a humidified chamber at 4° C. with a PBS buffered solution that contained 1% NGS or 1% NRS, 1% bovine serum albumin (BSA) and one of the following primary antibodies: (a) rabbit anti-human/mouse ATF-3 (H-90) IgG (polyclonal, 1:500; Santa Cruz Biotechnology, Inc., Santa Cruz, Calif.), (b) anti-activated caspase-3 IgG (monoclonal, 1:250; Chemicon International, Temecula, Calif.) (see FIG. 9), (c) goat antihuman/mouse choline acetyl transferase (ChAT) IgG (polyclonal, 1:100; Chemicon International, Temecula, Calif.) (see FIG. 6), (d) rabbit anti-mouse glial fibrillary acidic protein IgG (polyclonal, 1:250; GeneTex Inc., San Antonio, Tex.) (see FIG. 7), (e) rabbit antihuman/mouse ionized calcium binding adaptor molecule 1 (IBA-1) IgG (polyclonal, 1:500; Wako Pure Chemical Industries, Ltd, Richmond, Va.), (f) mouse anti-human/mouse clone AT8 PHF-1 Tau (monoclonal, 1:200; Pierce Biotechnology Inc., Rockford, Ill.), (g) rabbit anti-human/mouse TAR DNA-binding protein 43 (TDP43) (1:100; ProteinTech Group Inc., Chicago, Ill.) (See FIG. 14), (h) chicken anti-human/mouse β-tubulin 3 (TuJ1 antigen) (polyclonal, 1:100, Ayes Labs, Inc., Tigard, Oreg.), (i) rabbit anti-mouse tyrosine hydroxylase (polyclonal, 1:500, Chemicon International, Temecula, Calif. or polyclonal 1:1000, Affinity BioReagents, Golden, Colo.) (FIG. 10), (j) rabbit anti human/mouse anti-pJunscr73 IgG (polyclonal, 1:200; Chemicon International, Temecula, Calif.), (k) rabbit anti human/mouse anti-HSP-70 IgG (polyclonal, 1:200; Chemicon International, Temecula, Calif.), or (1) rabbit anti human/mouse anti-HSP-25 IgG (polyclonal, 1:100; Chemicon International, Temecula, Calif.). In each experiment, additional slides were incubated with the primary antibody and the secondary antibody omitted or with secondary antibody and primary antibody omitted to test for nonspecific staining. Where appropriate, positive control slides (Alzheimer's disease patient entorhinal cortex, obtained from Drs. Claudia Schwab and Patrick McGeer of the Kinsmen Laboratory, University of British Columbia, Vancouver, BC, Canada) were also processed as above for comparison. […]

male CD-1 mice = assay: Rotarod test, SG-fed mice; assay type: in vivo, mouse; conditions: SG-fed vs control, duration of study
From the text: Five-month old male CD-1 mice (30.1-35.7 g, 7.5 cm-8.8 cm) were purchased from Charles River (Wilmington, Mass.). Adult mice were chosen to mimic the mean age of onset of ALS-PDC (Kurland, L. T. (1988a) Trends Neurosci. 11, 51-4; Kurland, L. T., et al. (1994) Amyotrophic lateral sclerosis-parkinsonism-dementia complex on Guam: epidemiologic and etiological perspectives. 109-131). Thirty mice for the SG study were randomly divided into 2 groups (14 control and 16 experimental animals). All animals were housed singly in a virus-free barrier facility in a room maintained at 22° C. under a 12 hour light/dark cycle. The mice were provided ad libitum access to food and water.
The synthetic SG was mixed with finely ground Purina Chow mouse pellets (Mouse Diet™, Purina) to create the experimental pellets with a SG content of 1000 μg per pellet. Dry materials were blended with a sterile silicon spatula. For every 5 g of standard feed, 2.5 mL of doubly-distilled water (dd)H2O was added and the dough was kneaded and round up into pellets. A single sterol glucoside containing pellet was placed in the feeding tray each morning before the addition of regular mouse chow (ad libitum). All experimental pellets were entirely consumed by the mice each day. […] SG feeding was conducted daily for 15 weeks and mice were behaviorally monitored until sacrifice at 35 weeks (time point 1) or 52 weeks (time point 2). […]

Compound: CC[C@H](/C=C/[C@@H](C)[C@H]1CC[C@H]2[C@@H]3CC=C4C[C@@H](O[C@@H]5O[C@H](CO)[C@@H](O)[C@H](O)[C@H]5O)CC[C@]4(C)[C@H]3CC[C@]12C)C(C)C [SG, Stigmasterol β-D-Glucopyranoside]
- Fewer cholinergic neurons than control ([1]; 35 weeks): 18%
- Fewer cholinergic neurons than control ([1]; 52 weeks): 32%
- Cholinergic neurons, change ([1]; Time-point 1 (35 wk)): Cholinergic neurons (−18%)
- Cholinergic neurons, change ([1]; Time-point 2 (52 wk)): Cholinergic neurons (−32%)
- Rotarod performance (time without fall) (male CD-1 mice): decrease in the time without fall; also recorded: trend of diminished performance
